Laboratory results: patent US20170137387A1, “PHARMACOLOGICALLY ACTIVE QUINAZOLINEDIONE DERIVATIVES” (ORION CORPORATION, priority 2014, published 2017)

Tests used:
[1] = target: T1, human GABAB1 and GABAB2 receptor subunits (Homo sapiens, UniProt O75899+Q9UBS5); assay: Potentiation of GABA dose-response, FLIPR calcium assay; format: cell-based; details: compound at 10 μM; EC50 of GABA divided by EC50 of GABA in the presence of positive allosteric modulator
T1 construct: expressed in transfected cells; host or cells: CHO cells
T1 sequence (Q9UBS5 15-961 limits assumed): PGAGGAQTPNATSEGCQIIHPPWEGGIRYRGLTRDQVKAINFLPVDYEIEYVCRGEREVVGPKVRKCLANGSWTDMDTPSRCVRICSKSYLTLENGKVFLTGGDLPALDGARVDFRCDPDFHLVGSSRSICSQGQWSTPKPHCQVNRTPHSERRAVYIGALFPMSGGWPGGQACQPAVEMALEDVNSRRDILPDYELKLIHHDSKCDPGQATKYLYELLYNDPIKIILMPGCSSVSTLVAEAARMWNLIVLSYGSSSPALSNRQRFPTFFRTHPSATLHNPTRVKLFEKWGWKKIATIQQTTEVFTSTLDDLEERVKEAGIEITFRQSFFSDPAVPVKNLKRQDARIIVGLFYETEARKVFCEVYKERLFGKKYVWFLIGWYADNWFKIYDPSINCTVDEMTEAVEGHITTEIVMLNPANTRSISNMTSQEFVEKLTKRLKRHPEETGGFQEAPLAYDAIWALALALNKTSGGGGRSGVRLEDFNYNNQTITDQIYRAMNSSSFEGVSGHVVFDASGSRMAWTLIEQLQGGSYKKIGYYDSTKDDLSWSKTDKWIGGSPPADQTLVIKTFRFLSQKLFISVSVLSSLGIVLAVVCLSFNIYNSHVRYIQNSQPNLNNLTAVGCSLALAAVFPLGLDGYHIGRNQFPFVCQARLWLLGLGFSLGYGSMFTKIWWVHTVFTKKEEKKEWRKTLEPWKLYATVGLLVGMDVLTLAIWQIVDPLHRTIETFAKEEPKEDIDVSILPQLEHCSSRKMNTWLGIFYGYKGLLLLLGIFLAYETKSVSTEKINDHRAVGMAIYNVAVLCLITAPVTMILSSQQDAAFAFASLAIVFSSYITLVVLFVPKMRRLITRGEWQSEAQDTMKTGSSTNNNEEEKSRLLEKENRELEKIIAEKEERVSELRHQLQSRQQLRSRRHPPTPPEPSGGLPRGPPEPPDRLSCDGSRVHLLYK
T1 sequence (O75899 42-941): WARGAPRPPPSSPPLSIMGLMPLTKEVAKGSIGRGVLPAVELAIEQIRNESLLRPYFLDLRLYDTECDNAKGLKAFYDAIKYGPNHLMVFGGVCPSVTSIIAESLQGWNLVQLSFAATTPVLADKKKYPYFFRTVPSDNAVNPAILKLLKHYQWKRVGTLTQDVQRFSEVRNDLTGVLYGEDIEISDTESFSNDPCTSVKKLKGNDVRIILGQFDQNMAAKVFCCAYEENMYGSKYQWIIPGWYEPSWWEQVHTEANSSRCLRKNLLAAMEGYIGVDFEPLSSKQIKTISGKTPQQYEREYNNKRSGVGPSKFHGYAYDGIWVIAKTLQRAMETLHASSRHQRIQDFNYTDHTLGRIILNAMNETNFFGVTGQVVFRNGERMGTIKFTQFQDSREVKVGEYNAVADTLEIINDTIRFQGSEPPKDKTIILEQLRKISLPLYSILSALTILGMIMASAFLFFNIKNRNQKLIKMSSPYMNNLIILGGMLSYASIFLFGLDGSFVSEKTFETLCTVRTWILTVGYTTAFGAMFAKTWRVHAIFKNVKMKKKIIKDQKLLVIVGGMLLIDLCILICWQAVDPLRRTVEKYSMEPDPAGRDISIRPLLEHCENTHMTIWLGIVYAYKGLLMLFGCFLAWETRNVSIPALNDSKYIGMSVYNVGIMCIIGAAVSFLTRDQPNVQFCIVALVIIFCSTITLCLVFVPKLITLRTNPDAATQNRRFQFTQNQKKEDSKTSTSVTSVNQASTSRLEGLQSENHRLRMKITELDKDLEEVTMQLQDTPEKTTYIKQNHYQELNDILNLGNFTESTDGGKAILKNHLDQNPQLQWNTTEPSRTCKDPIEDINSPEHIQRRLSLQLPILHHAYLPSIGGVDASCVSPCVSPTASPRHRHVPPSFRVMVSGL
Method: (§1) CHO cells expressing the human GABAB1 and GABAB2 receptor subunits co-expressing promiscuous Galpha16 proteins to force couple the receptor to the intracellular calcium signalling pathway were used to study GABAB pharmacology in vitro. The cells were maintained at 37° C. in a 5% CO2 95% air atmosphere in HAM F-12 medium supplemented with 10% foetal bovine serum and selection antibiotics.
(§2) The day before the experiment the cells were detached and plated into black-walled clear bottom 384-well plates at a cell density of 20 000 cells per well. The growth medium was removed and the cells were incubated with FLIPR Calcium 5 Assay reagent (Molecular Devices, CA, USA) diluted 1:1 in Probenecid-Ringer for 1 h at 37° C. in dark. Probenecid-Ringer buffer consisted of 150 mM NaCl, 3 mM KCl, 1.2 mM MgCl2, 1 mM CaCl2, 5 mM glucose, 20 mM 2-(4-(2-hydroxyethyl)piperazin-1-yl)ethanesulfonic acid (HEPES), and 2.5 mM Probenecid (pH 7.4 adjusted with 1.0 M NaOH and osmolarity adjusted to […]). Compounds were dissolved in Probenecid-Ringer. […] The samples were excited at 470-495 nm and emission was detected at 515-575 nm. All experiments were performed at 37° C.
(§3) Baseline fluorescence minimum was subtracted from maximum for the calculation of agonism and positive allosteric modulator pharmacology. Both in the agonism mode and in the allosteric mode, the efficacy was related to the intrinsic activity (IA) of the endogenous agonist GABA at 30 μM (positive allosteric modulator efficacy at 10 μM/GABA efficacy or agonism efficacy at 30 μM/GABA efficacy). To determine potentiation of GABA dose-response, the compounds, at a concentration of 10 μM diluted in Probenecid-Ringer, were added by FLIPR tetra followed by addition of GABA (diluted in water in the concentration range 0.123-10 μM). The EC50 values were determined using a four-parameter logistic fit (model 205 in ActivityBase XE). The EC50 value of GABA was divided with the EC50 value of GABA in the presence of positive allosteric modulator to determine potentiation of GABA dose-response EC50 value.

[2] = target: T1, human GABAB1 and GABAB2 receptor subunits; assay: Agonism and positive allosteric modulator pharmacology in vitro, two-addition FLIPR calcium assay; format: cell-based; details: CHO cells co-expressing Galpha16; for IA (GABAB agonism): agonism efficacy at 30 μM / GABA efficacy at 30 μM; for IA (GABAB positive allosteric modulation): positive allosteric modulator efficacy at 10 μM (with EC10.5 GABA) / GABA efficacy at 30 μM
Method: as §1, §2
A two-addition protocol was used to determine agonism and positive allosteric modulator pharmacology in the same assay using a kinetic read out. Agonism pharmacology of compounds was studied in the first addition in the concentration range 0.123-30 μM in quadruplicate at each concentration. In the second addition, a low (EC10.5) concentration of GABA was applied to detect the positive allosteric modulator pharmacology of the compounds to be studied. The EC10.5 concentration was determined from the GABA EC50 value using the formula ECF≈(F/(100-F))^1/H·EC50, wherein F is the fraction of full response and H is Hill slope.
as §3

Compound	Potentiation of GABA (fold) [1]	IA (GABAB agonism) [2]	IA (GABAB positive allosteric modulation) [2]
CC(C)(O)Cn1c(=O)n(Cc2ccc(Br)cc2)c(=O)c2cc(F)c(F)c(F)c21 [Example 60, 3-(4-Bromobenzyl)-6,7,8-trifluoro-1-(2-hydroxy-2-methylpropyl)quinazoline-2,4(1H,3H)-dione]	89 fold	0.20	0.85
COc1c(F)cc2c(=O)n(Cc3ccc(Br)cc3)c(=O)n3c2c1OC(C)(C)C3 [Example 84, 6-(4-Bromobenzyl)-9-fluoro-10-methoxy-2,2-dimethyl-2H-[1,4]oxazino[2,3,4-ij]quinazoline-5,7(3H,6H)-dione]	33.4 fold	0.10	0.86
CC(C)(O)Cn1c(=O)n(Cc2ccc(Cl)c(Cl)c2)c(=O)c2ccc(C(F)(F)F)cc21 [Example 2, 3-(3,4-Dichlorobenzyl)-1-(2-hydroxy-2-methylpropyl)-7-(trifluoromethyl)quinazoline-2,4(1H,3H)-dione]	11 fold	0.14	0.65
CC1(C)Cn2c(=O)n(Cc3ccc(Br)cc3)c(=O)c3cc(F)c(F)c(c32)O1 [Example 66, 6-(4-Bromobenzyl)-9,10-difluoro-2,2-dimethyl-2H-[1,4]oxazino[2,3,4-ij]quinazoline-5,7(3H,6H)-dione]	12.7 fold	0.04	0.77
CC(C)(O)Cn1c(=O)n(Cc2ccc(Cl)cc2)c(=O)c2cc(Cl)cc(F)c21 [Example 131, 6-Chloro-3-(4-chlorobenzyl)-8-fluoro-1-(2-hydroxy-2-methylpropyl)quinazoline-2,4(1H,3H)-dione]	42.6 fold	0.19	0.89
Cn1c(=O)n(Cc2ccc([N+](=O)[O-])cc2)c(=O)c2ccc(F)cc21 [Example 40, 7-Fluoro-1-methyl-3-(4-nitrobenzyl)quinazoline-2,4(1H,3H)-dione]	1.5 fold	0.04	0.26
CC1(Cn2c(=O)n(Cc3ccc(Br)cc3)c(=O)c3cc(F)c(Cl)cc32)COC1 [Example 50, 3-(4-Bromobenzyl)-7-chloro-6-fluoro-1-((3-methyloxetan-3-yl)methyl)quinazoline-2,4(1H,3H)-dione]	22 fold	0.04	0.73
Cn1c(=O)n(C2CCCc3ccccc32)c(=O)c2ccc(C(F)(F)F)cc21 (stereo not drawn) [Example 12, 1-Methyl-3-(1,2,3,4-tetrahydronaphthalen-1-yl)-7-(trifluoromethyl)quinazoline-2,4(1H,3H)-dione]	25.8 fold	0.20	0.67
CC(C)(O)Cn1c(=O)n(Cc2ccc(Br)cc2)c(=O)c2cc(F)c(Cl)cc21 [Example 49, 3-(4-Bromobenzyl)-7-chloro-6-fluoro-1-(2-hydroxy-2-methylpropyl)quinazoline-2,4(1H,3H)-dione]	31 fold	0.28	0.61
CC(C)(O)Cn1c(=O)n(Cc2ccc(Br)cc2)c(=O)c2ccc(Cl)c(F)c21 [Example 123, 3-(4-Bromobenzyl)-7-chloro-8-fluoro-1-(2-hydroxy-2-methylpropyl)quinazoline-2,4(1H,3H)-dione]	60.4 fold	0.13	0.71
CC1(C)Cn2c(=O)n(Cc3ccc(Br)cc3)c(=O)c3ccc(Cl)c(c32)O1 [Example 127, 6-(4-Bromobenzyl)-10-chloro-2,2-dimethyl-2H-[1,4]oxazino[2,3,4-ij]quinazoline-5,7(3H,6H)-dione]	6.7 fold	0.02	0.53

Results, then the compound that gave them:

Potentiation of GABA (fold) [1]	IA (GABAB agonism) [2]	IA (GABAB positive allosteric modulation) [2]	Compound
1.6 fold	0.06	0.43	Cn1c(=O)n(Cc2ccc(Br)cc2)c(=O)c2ccc(Cl)cc21 [Example 18, 3-(4-Bromobenzyl)-7-chloro-1-methylquinazoline-2,4(1H,3H)-dione]
3.8 fold	0.17	0.51	Cn1c(=O)n(C2(c3ccc(Cl)cc3)CC2)c(=O)c2ccc(F)cc21 [Example 43, 3-(1-(4-Chlorophenyl)cyclopropyl)-7-fluoro-1-methylquinazoline-2,4(1H,3H)-dione]
1.9 fold	0.21	0.39	CC(C(N)=O)n1c(=O)n(Cc2ccc(Br)cc2)c(=O)c2ccc(F)cc21 (stereo not drawn) [Example 37, 2-(3-(4-Bromobenzyl)-7-fluoro-2,4-dioxo-3,4-dihydroquinazolin-1(2H)-yl)propanamide]
2.8 fold	0.10	0.47	CC(C)(O)Cn1c(=O)n(Cc2ccc(Cl)c(Oc3ccccc3)c2)c(=O)c2ccc(F)cc21 [Example 41, 3-(4-Chloro-3-phenoxybenzyl)-7-fluoro-1-(2-hydroxy-2-methylpropyl)quinazoline-2,4(1H,3H)-dione]
7.3 fold	0.18	0.37	C[C@H](c1ccc(Cl)cc1)n1c(=O)c2ccc(F)cc2n(C)c1=O [Example 42, (R)-3-(1-(4-Chlorophenyl)ethyl)-7-fluoro-1-methylquinazoline-2,4(1H,3H)-dione]
3.3 fold	0.11	0.44	CCn1c(=O)n(Cc2ccc(Br)cc2)c(=O)c2ccc(F)cc21 [Example 87, 3-(4-Bromobenzyl)-1-ethyl-7-fluoroquinazoline-2,4(1H,3H)-dione]
23.1 fold	0.30	0.85	CC(C)(O)Cn1c(=O)n(Cc2ccc(Br)cc2)c(=O)c2ccc(F)cc21 [Example 39, 3-(4-Bromobenzyl)-7-fluoro-1-(2-hydroxy-2-methylpropyl)quinazoline-2,4(1H,3H)-dione]
4.8 fold	0.23	0.45	Cn1c(=O)n(Cc2ccc(Br)cc2)c(=O)c2ccc(F)cc21 [Example 33, 3-(4-Bromobenzyl)-7-fluoro-1-methylquinazoline-2,4(1H,3H)-dione]
19.8 fold	0.09	0.51	C[C@H](c1ccc(Cl)cc1)n1c(=O)c2ccc(Cl)cc2n(CC(C)(C)O)c1=O [Example 117, (R)-7-Chloro-3-(1-(4-chlorophenyl)ethyl)-1-(2-hydroxy-2-methylpropyl)quinazoline-2,4(1H,3H)-dione]
3.5 fold	0.13	0.21	CC(C)n1c(=O)n(Cc2ccc(Br)cc2)c(=O)c2ccc(F)cc21 [Example 38, 3-(4-Bromobenzyl)-7-fluoro-1-isopropylquinazoline-2,4(1H,3H)-dione]
24.5 fold	0.18	0.71	C[C@@H](O)Cn1c(=O)n(Cc2ccc(Cl)cc2)c(=O)c2ccc(Cl)c(F)c21 [Example 82, (R)-7-Chloro-3-(4-chlorobenzyl)-8-fluoro-1-(2-hydroxypropyl)quinazoline-2,4(1H,3H)-dione]
19.7 fold	0.05	0.64	C[C@H](c1ccc(Cl)cc1)n1c(=O)c2ccc(Cl)cc2n(CC2(C)COC2)c1=O [Example 137, (R)-7-Chloro-3-(1-(4-chlorophenyl)ethyl)-1-((3-methyloxetan-3-yl)methyl)quinazoline-2,4(1H,3H)-dione]
